In assay [1] the test system is chemoresistant MDA-MB-231 human tumour cells (breast adenocarcinoma). The assay is described as follows: Viability of MDA-MB-231 cells, xCELLigence assay (Table 5). The following applies: conclusion from Tables 5 and 6 (MDA-MB-231 and MCF-7). In kind it is cell-based.
For assay [2], the system named is MDA-MB-231 (breast adenocarcinoma). The assay is described as follows: Cell viability of chemoresistant MDA-MB-231 cells (Tables 1, 2, 4). In kind it is cell-based, human. The following applies: alone or in association with cyclophosphamide. An excerpt: The activity of the association of at least one flavonoid, preferably selected from the group comprising or, alternatively, consisting of oxerutin, diosmin, hesperidin and rutin in association with melatonin and with synthetic chemotherapeutic agents (cyclophosphamide/methotrexate) and/or arctigenin, arctiin, berberine, berbamine, sanguinarine and chelerythrine (indicated with the term “Extracts” in the Tables) was studied in resistant cell lines of adenocarcinomas and carcinomas in comparison with chemosensitive tumour cell lines and line cells.

For `COc1ccc2[nH]cc(CCNC(C)=O)c2c1` [Melatonin, melatonin], in assay [1], the “effect on the anti-tumour activity of flavonoids” value is listed as “enhances the anti-tumour activity of flavonoids”.
Turning to `O=c1c(O)c(-c2ccc(O)c(O)c2)oc2cc(O)cc(O)c12` [Quercetin, quercetin], the “synergistic effects in association with cyclophosphamide” value in assay [2] is reported as “absence of synergistic effects”.
